Legend:
[1] = tested on: SKRC7 human renal cell line; assay: Vinblastine accumulation assay, SKRC7; type: cell-based; settings: 10 μM, 10 nM [3H] vinblastine
Experimental: These cell lines are models of intrinsic resistance.
[^3 H] vinblastine was added to a final concentration of 10 nM and the cells were incubated for 2.5 hours. At this time, the cells were washed 3 times in ice cold PBS and lysed in buffer containing 0.1% Triton X-100.

[2] = tested on: MCF7 WT; assay: Tumor cell clonogenic assay, MCF7 WT; type: cell-based, human
Experimental: The tumor cell clonogenic assays measure clonal proliferation of tumor cells. In this assay, 300-500 cells are plated in 10 cm^2 wells, allowed to adhere overnight, and are treated the following day. Tumor cell colonies were counted after 10-12 days of culture. […] The IC50's are calculated as described above for the MTT proliferation assays.

[3] = tested on: mice; assay: Preliminary animal toxicity studies; type: in vivo; settings: 400 mg/kg
[4] = [3H] VLB binding to MCF7 WT membrane vesicles; set-up: species or system human; settings: MCF7 WT membrane vesicles
Experimental: METHOD: Membrane vesicles from sensitive and MDR MCF7 were prepared by nitrogen cavitation and isolated by centrifugation in discontinuous sucrose gradients. […] In the presence of 100 nM [^3 H] VLB and ATP, total and nonspecific binding of [^3 H] VLB (experimentally defined as binding in the presence of a 100 μM unlabeled VLB) was measured. Association of [^3 H] […] In contrast, association of [^3 H] […] VLB with MCF7 WT vesicles.

[5] = tested on: calmodulin kinase; assay: Calmodulin kinase inhibition; type: biochemical
Source text: (§1) One possible explanation for stimulation of phosphorylation of P-glycoprotein and MARCKS is that 1c may activate PKC or other cellular kinases by signal transduction pathways that have not yet been identified to phosphorylate these proteins. An alternative explanation for stimulation of phosphorylation of P-glycoprotein and MARCKS is that 1c inhibits protein phosphatases.

[6] = tested on: MCF7 Adr 10; assay: Tumor cell clonogenic assay, MCF7 ADR 10; type: cell-based, human
Experimental: The tumor cell clonogenic assays measure clonal proliferation of tumor cells. In this assay, 300-500 cells are plated in 10 cm^2 wells, allowed to adhere overnight, and are treated the following day. Tumor cell colonies were counted after 10-12 days of culture. The times of exposure in these experiments are similar; however, the concentrations of FCS are 20% in the CFU-GM assay and 10% in the tumor cell clonogenic assays. The IC50's are calculated as described above for the MTT proliferation assays.

[7] = target: T1, P-glycoprotein in MCF7 Adr 10 membrane vesicles (Homo sapiens, UniProt P08183)
T1 sequence (P08183 whole entry): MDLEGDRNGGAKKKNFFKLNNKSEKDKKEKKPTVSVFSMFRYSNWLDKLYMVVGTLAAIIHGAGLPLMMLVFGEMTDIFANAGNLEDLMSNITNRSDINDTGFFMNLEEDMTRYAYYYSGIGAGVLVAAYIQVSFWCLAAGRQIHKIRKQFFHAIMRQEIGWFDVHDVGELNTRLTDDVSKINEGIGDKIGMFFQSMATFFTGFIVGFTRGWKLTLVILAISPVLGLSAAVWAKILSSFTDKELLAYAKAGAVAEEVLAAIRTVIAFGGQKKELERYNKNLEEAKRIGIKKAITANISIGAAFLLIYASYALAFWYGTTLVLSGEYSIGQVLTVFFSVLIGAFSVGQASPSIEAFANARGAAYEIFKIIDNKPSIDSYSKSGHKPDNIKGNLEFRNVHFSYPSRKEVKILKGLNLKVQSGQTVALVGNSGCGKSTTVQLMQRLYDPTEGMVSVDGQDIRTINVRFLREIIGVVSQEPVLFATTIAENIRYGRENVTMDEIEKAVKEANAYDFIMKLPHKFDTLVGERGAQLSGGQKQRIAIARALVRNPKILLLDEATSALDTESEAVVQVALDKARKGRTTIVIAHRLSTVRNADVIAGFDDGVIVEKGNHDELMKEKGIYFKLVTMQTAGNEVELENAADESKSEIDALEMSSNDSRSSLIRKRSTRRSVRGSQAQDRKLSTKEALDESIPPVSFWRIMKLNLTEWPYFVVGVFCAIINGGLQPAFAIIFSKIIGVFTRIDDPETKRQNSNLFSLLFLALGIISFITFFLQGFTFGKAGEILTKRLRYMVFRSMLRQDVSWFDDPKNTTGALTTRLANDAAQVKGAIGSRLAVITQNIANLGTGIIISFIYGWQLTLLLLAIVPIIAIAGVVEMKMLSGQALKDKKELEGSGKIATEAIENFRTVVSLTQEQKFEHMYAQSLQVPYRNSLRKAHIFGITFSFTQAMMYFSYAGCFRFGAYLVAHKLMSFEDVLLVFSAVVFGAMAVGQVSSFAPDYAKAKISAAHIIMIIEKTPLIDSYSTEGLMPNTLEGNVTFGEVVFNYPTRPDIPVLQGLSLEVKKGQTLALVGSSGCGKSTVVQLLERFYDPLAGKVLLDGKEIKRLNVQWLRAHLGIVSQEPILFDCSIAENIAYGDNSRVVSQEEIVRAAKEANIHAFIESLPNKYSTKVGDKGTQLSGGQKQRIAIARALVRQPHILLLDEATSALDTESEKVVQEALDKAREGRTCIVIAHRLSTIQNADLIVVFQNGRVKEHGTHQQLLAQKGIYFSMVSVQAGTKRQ

[8] = tested on: MCF7 WT; assay: 72 hour MTT proliferation assay, potentiation of sensitivity in MCF7 WT; type: cell-based, human; settings: MCF7 WT
Experimental: In 72 hour MTT proliferation assays using the following method, compounds 1b, 1c and 1d were assessed for inhibition of Vinca alkaloid and anthracycline drug resistance in MDR MCF7. Additionally, compounds 1b and 1c were assessed for potentiation of sensitivity to Vinca alkaloid and anthracycline drugs in the parental MCF7 WT cell line.
METHOD: 5000 cells per well were plated in 100 μl of IMDM containing 10% FCS and allowed to adhere overnight. The following day the cells were treated with N-substituted 1,4-diaminoanthraquinones and exposed to graded concentrations of antineoplastic agents. 50 μl of IMDM 10% FCS containing either vehicle or N-substituted 1,4-diaminoanthraquinones at 3 times the final tested concentration was added to cells at timed intervals. The plates were incubated for 2 hours at 37° C. to allow maximal cellular accumulation of N-substituted 1,4-diaminoanthraquinones. 40 μl aliquots of IMDM 10% FCS containing either vehicle or graded concentrations of antineoplastic drugs at 5 times the final concentration were added to treatment groups. Following this addition, 10 μl of IMDM 10% FCS containing either vehicle or N-substituted 1,4-diaminoanthraquinone at 5 times the final concentration was added to each group of wells. The cells were incubated for 72 hours after treatment. At this time the viable cells in each treatment group were estimated in a colorimetric assay by adding MTT and incubating the cells at 37° C. for 3-4 hours. The media in each well was aspirated and MTT formazan was solubilized in isopropyl alcohol acidified with 0.1 N HCl. The absorbance of the solubilized formazan was quantitated using a plate reader spectrophotometer. […] The concentrations of antineoplastic drugs which inhibited proliferation by 50% (IC50's) were estimated by calculating a percentage from the ratio: antineoplastic drug treated groups/control group absorbance and plotting the dose response curve on semilog paper. The IC50 was estimated from this curve. To assess the effects of inhibition of resistance by N-substituted 1,4-diaminoanthraquinones, the percentages were calculated relative to cell groups treated with resistance modifier alone and IC50's calculated as above. A reversal factor was calculated by dividing the IC50 to the antineoplastic drug alone (Control group) by the IC50 to antineoplastic drug in cells treated with resistance modifier.

[9] = tested on: casein kinase 2; assay: Casein kinase 2 inhibition; type: biochemical
Source text: as §1

[10] = tested on: serine threonine kinases; assay: In vitro assays of serine threonine kinases; type: biochemical
[11] = target: T1, P-glycoprotein in MCF7 Adr 10 membrane vesicles; assay: biochemical; settings: read-out: decrease of specific binding of [3H] VLB
[12] = tested on: P-glycoprotein; assay: Phosphorylation of P-glycoprotein in intact MCF7 Adr 10 cells; type: cell-based, human; settings: MCF7 Adr 10, representative time course experiment, FIG. 12
Source text: The effects of compound 1c on phosphorylation of the P-glycoprotein and the MARCKS protein (myristoylated alanine-rich C kinase substrate) was studied in intact cells labeled with [^32 P] orthophosphate. The MARCKS protein (also known as the 80 to 87 kD protein) is observed to be rapidly phosphorylated subsequent to PKC activation by phorbol esters, cell permeant diacylglycerols, growth factor and hormonal stimulation in a variety of cell types from several species. […] In these experiments, phosphorylation of MARCKS was used as a marker of cellular PKC activity. The effects of 1c on phosphorylation states of the P-glycoprotein and MARCKS protein were studied to test the possibility that this compound may be inhibiting PKC in cells; due to metabolism to an active PKC inhibitor or by achieving inhibitory concentrations in the microenvironment of the P-glycoprotein.
METHOD: A monoclonal antibody to the P-glycoprotein, C219, was used to immunoprecipitate the P-glycoprotein and a polyclonal rabbit antibody was used to immunoprecipitate the MARCKS protein from extracts of cells labeled with [^32 P]. MARCKS was immunoprecipitated after preclearing the aliquot with normal rabbit IgG. MCF7 Adr 10 cells were labeled with [^32 P] orthophosphate for two hours. […] P-glycoprotein and MARCKS were immunoprecipitated from aliquots of the same sample containing equivalent radioactivity.

[13] = tested on: catalytic subunits of protein kinase A; assay: Protein kinase A catalytic subunit inhibition; type: biochemical
Source text: as §1

In the case of O=C1c2ccccc2C(=O)c2c(NCCCN3CCOCC3)ccc(NCCCN3CCOCC3)c21 [Compound 1c, 1,4-bis-[[3'(4-morpholino)propyl]amino]anthraquinone], the “vinblastine accumulation relative to verapamil” value [1] is reported as “comparable or superior to verapamil activity”, the IC50 ([2]; Homo sapiens, MCF7, tumor cell clonogenic assay, 10-12 days, read-out: Continuous Exposure IC50, MCF7 WT) is reported as 800 nM and the “antiproliferative effect relative to human CFU-GM” value ([2]; sensitive cancer cells, clonal proliferation assays) is reported as “approximately 10 times”. The toxicity in mice [3] was “not toxic at 400 mg/kg in mice”, the “effect on specific binding of [3H] VLB” value [4] was “no effect” and the “calmodulin kinase inhibitory activity” value [5] was “did not inhibit”. For the same molecule, the IC50 ([6]; Homo sapiens, NCI/ADR-RES, tumor cell clonogenic assay, 10-12 days, read-out: Continuous Exposure IC50, MCF7 ADR 10) was 400 nM, the “antiproliferative effect relative to human CFU-GM” value ([6]; MDR cancer cells, clonal proliferation assays) was ~20 times and the “relative sensitivity of MCF7 WT and MDR MCF7 to cytotoxicity” value ([6]; clonogenic assays) was “MDR MCF7 are twice as sensitive to 1c cytotoxicity as MCF7 WT”. The “effect on non-specific binding of [3H] VLB” value [7] was “no effect”, the “effect on toxicity of vincristine in drug sensitive cells” value [8] was “enhances toxicity of vincristine in drug sensitive cells” and the “Reversal Factor (VCR)” value ([8]; [1c] 1.0 μM) was 1.9. For the same molecule, the “casein kinase 2 inhibitory activity” value [9] was “did not inhibit”, the “activity in in vitro assays of serine threonine kinases” value [10] was “does not show significant activity” and the inhibition at 5 µM [11] was 29%. For the same molecule, the inhibition at 10 µM [11] was 42%, the inhibition at 25 µM [11] was 69% and the “increase of P-glycoprotein phosphorylation” value [12] was 6.6 fold. For the same molecule, the “protein kinase A inhibitory activity” value [13] was “did not inhibit”.
